Experimental data: US8759295B2, “Peptide-peptidase inhibitor conjugates and methods of using same” (Amylin Pharmaceuticals, LLC, priority 2006, dated 2014)

Biological target: T1, ACE from rabbit lung (Oryctolagus cuniculus, UniProt P12822)
T1 construct: ACE from rabbit lung, Sigma Chemical Co., St. Louis, Mo; purchased Sigma Chemical Co., St. Louis, Mo; host or cells: rabbit lung (tissue-derived enzyme)
T1 sequence (P12822 34-1310): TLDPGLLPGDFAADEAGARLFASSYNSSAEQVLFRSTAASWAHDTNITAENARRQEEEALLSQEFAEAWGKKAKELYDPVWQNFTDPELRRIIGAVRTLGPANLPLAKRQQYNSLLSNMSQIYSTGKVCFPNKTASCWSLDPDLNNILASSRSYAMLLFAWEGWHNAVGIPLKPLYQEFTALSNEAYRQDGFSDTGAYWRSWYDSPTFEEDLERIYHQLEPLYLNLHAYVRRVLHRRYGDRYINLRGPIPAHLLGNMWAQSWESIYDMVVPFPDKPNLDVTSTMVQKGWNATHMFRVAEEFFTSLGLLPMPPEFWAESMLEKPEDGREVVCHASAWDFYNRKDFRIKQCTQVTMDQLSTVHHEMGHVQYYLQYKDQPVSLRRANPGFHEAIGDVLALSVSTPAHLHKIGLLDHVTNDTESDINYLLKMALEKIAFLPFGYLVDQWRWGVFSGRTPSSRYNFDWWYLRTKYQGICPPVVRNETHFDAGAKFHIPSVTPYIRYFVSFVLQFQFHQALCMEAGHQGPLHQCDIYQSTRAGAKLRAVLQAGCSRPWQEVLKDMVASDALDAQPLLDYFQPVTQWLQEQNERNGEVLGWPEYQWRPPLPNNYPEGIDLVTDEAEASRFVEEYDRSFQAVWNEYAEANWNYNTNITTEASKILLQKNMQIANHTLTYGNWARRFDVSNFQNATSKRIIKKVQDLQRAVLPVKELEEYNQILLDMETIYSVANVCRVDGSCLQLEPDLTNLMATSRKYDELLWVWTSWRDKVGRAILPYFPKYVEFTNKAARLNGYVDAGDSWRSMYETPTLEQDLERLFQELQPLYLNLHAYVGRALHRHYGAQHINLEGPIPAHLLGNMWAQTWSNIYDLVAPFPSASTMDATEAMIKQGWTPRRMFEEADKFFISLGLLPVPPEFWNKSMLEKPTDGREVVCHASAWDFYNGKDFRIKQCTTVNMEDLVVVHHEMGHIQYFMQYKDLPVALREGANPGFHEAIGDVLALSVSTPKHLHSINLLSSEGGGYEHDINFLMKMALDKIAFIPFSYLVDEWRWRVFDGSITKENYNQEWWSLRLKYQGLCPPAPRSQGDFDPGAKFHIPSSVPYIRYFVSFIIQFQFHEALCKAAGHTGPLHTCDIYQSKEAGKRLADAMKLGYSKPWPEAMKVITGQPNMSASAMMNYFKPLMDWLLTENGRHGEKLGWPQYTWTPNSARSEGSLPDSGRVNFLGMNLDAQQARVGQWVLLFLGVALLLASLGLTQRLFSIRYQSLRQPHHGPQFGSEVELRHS
Experiment: ACE inhibition assay
Type: biochemical
Protocol: Peptide-ACE peptidase inhibitor conjugate compounds were assessed in an ACE inhibition assay using purified ACE enzyme and chromogenic substrates. An ACE stock solution was prepared by dissolving 0.1 unit of enzyme (ACE from rabbit lung, Sigma Chemical Co., St. Louis, Mo.) in 0.640 mL of HEPES buffer (0.1 M, pH=8). A 2 mM stock solution of substrate (N-benzyloxycarbonyl-Phe-His-Leu-OH) dissolved in methanol. The ACE inhibitor compounds were dissolved in phosphate buffer (0.1 M, pH=8) at concentrations of 0.0, 1, 10, 20, 60 and 100 μM. For the inhibition assay, six 2 mL microcentrifuge tubes were prepared containing 1.45 mL of phosphate buffer pH=8, 0.05 mL of 10% NaCl and 0.015 mL of substrate solution. To each microcentrifuge tube was added 0.015 mL of one of the ACE inhibitor compound's stock solutions. The solutions were heated at 37° C. for about 5 minutes. […] Initial rates were determined from linear portions of product release curves. […] Apparent binding constants (Kd^app or Ki^app) of inhibitors to ACE were determined by fitting inhibition curves (initial rate vs. inhibitor concentration) to equation:
[formula] where v0 is reaction rate in the absence of inhibitor and [I]—inhibitor concentration. Fits were done by least-squares method using KaleidaGraph 3.6 (Synergy Software, Reading Pa.).

SMILES: CC[C@H](C)[C@H](NC(=O)[C@H](Cc1ccccc1)NC(=O)[C@H](CCC(=O)O)NC(=O)[C@H](CCCCN)NC(=O)[C@H](C)NC(=O)[C@H](C)NC(=O)[C@H](CCC(N)=O)NC(=O)CNC(=O)[C@H](CCC(=O)O)NC(=O)[C@H](CC(C)C)NC(=O)[C@H](Cc1ccc(O)cc1)NC(=O)[C@H](CO)NC(=O)[C@H](CO)NC(=O)[C@@H](NC(=O)[C@H](CC(=O)O)NC(=O)[C@H](CO)NC(=O)[C@@H](NC(=O)[C@H](Cc1ccccc1)NC(=O)[C@@H](NC(=O)CNC(=O)[C@H](CCC(=O)O)NC(=O)[C@H](C)NC(=O)[C@@H](N)Cc1c[nH]cn1)[C@@H](C)O)[C@@H](C)O)C(C)C)C(=O)N[C@@H](C)C(=O)N[C@@H](Cc1c[nH]c2ccccc12)C(=O)N[C@@H](CC(C)C)C(=O)N[C@H](C(=O)N[C@@H](CCCCN)C(=O)NCC(=O)N[C@@H](CCCNC(=N)N)C(=O)NCC(=O)NCCCC(=O)NCCCC[C@H](NC(=O)[C@@H]1CCC(=O)N1)C(=O)N[C@@H](Cc1c[nH]c2ccccc12)C(=O)N[C@@H](C)C(=O)N1CCC[C@H]1C(=O)O)C(C)C [3633/38, GLP-1-(7-37)-γ-Abu-N^ε2Lys-(Pyr)-WAP-OH]
- IC50: > 10 µM
